# Biological target: T1, LXRβ (Homo sapiens, UniProt P55055)
# T1 sequence (P55055 222-460 limits assumed): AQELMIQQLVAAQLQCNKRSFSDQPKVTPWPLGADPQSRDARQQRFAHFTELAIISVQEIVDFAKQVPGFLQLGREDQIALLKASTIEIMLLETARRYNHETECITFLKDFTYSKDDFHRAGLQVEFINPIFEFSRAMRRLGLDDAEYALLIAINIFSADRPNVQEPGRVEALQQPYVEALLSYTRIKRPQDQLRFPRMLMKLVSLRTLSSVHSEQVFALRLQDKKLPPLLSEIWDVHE
# Assay: SPR
# Type: binding
smiles,measurement,value
"O=C(O)c1cc(O)c2c(c1)C(=O)c1cccc(O)c1C2=O [RH, 4,5-dihydroxyanthraquinone-2-carboxylic acid]",Kd,32 µM
